The values that follow come from patent publication US8097612B2 (priority 2006, dated 2012).

Data set [1] addresses F1Fo-ATPase. The data set is described as follows: Inhibition of the F1Fo-ATPase. Type of data set: biochemical. Particulars: binds to the OSCP in F1. The text has this:
F1Fo-ATPase inhibitors are invaluable tools for mechanistic studies of the F1Fo-ATPase (see, e.g., James A M, et al., J Biomed Sci 2002; 9:475-87; herein incorporated by reference in its entirety). Because F1Fo-ATPase inhibitors are often cytotoxic, they have been explored as drugs for cancer and other hyperproliferative disorders. Macrolides (e.g., oligomycin and apoptolidin) are non-competitive inhibitors of the F1Fo-ATPase (see, e.g., Salomon A R, et al., PNAS 2000; 97:14766-71; Salomon A R, et al., Chem Biol 2001; 8:71-80; herein incorporated by reference in its entirety). Macrolides bind to Fo which blocks proton flow through the channel resulting in inhibition of the F1Fo-ATPase. Macrolides are potent (e.g., the IC50 for oligomycin=10 nM) and lead to large decreases in [ATP]. As such, macrolides have an unacceptably narrow therapeutic index and are highly toxic (e.g., the LD50 for oligomycin in rodents is two daily doses at 0.5 mg/kg) (see, e.g., Kramar R, et al., Agents & Actions 1984, 15:660-63; herein incorporated by reference in its entirety). Other inhibitors of F1Fo-ATPase include Bz-423, which binds to the OSCP in F1 (as described elsewhere herein). Bz-423 has an Ki˜9 μM.

Data set [2] has as its system rodents. Particulars: two daily doses; cited from earlier work.
Data set [3] has as its target F1Fo-ATPase. Particulars: macrolide, non-competitive inhibitor binding to Fo; read-out: IC50 for inhibition of the F1Fo-ATPase; cited from earlier work.

The term Ki denotes a measure of affinity in units of concentration, obtained from inhibition or displacement. In data set [1], `CN1C(=O)C(Cc2ccc3ccccc3c2)N=C(c2ccc(O)cc2)c2cc(Cl)ccc21` (stereo not drawn) [Bz-423] yielded an inhibition constant (Ki) of about 9 µM. In general, LD50 refers to the dose expected to kill half of the subjects tested. By IC50 is commonly meant the concentration needed to halve the response being measured. Take `CC[C@H]1/C=C/C=C/C[C@@H](C)[C@H](O)[C@@](C)(O)C(=O)[C@@H](C)[C@H](O)[C@@H](C)C(=O)[C@@H](C)[C@H](O)[C@@H](C)/C=C/C(=O)O[C@@H]2[C@H](C)[C@H](CC1)O[C@]1(CC[C@H](C)[C@H](C[C@@H](C)O)O1)[C@H]2C` [oligomycin]: the LD50 in data set [2] is on record as 0.5 mg/kg. Further, the concentration for half-maximal inhibition (IC50) in data set [3] was 0.01 µM.
